This series relates to CCRIS mutagenicity, Ames/micronucleus/aberration tests. The experiment in a line: CCRIS mutagenicity studies.
The mark [1] stands for this setting: Test System: AMES SALMONELLA TYPHIMURIUM, Strain/Indicator: TA98, Metabolic Activation: NONE, Method: STANDARD PLATE.
Where [2] appears, read: Test System: AMES SALMONELLA TYPHIMURIUM, Strain/Indicator: TA100, Metabolic Activation: NONE, Method: STANDARD PLATE.
[3] abbreviates: Test System: AMES SALMONELLA TYPHIMURIUM, Strain/Indicator: TA100, Metabolic Activation: RAT, LIVER, S-9, AROCLOR 1254, Method: STANDARD PLATE.
Where [4] appears, read: Test System: AMES SALMONELLA TYPHIMURIUM, Strain/Indicator: TA98, Metabolic Activation: RAT, LIVER, S-9, AROCLOR 1254, Method: STANDARD PLATE.

Activity calls are given as the source filed them. The rule behind the calls is not given here.

In the case of `c1ccc2cc3c(ccc4ccccc43)cc2c1`, the mutagenic call is “inactive; negative” under setting [1]; “active; positive” (Test System: AMES SALMONELLA TYPHIMURIUM, Strain/Indicator: TA98, Method: STANDARD PLATE); “inactive; negative” under setting [2]; “active; positive” (Test System: AMES SALMONELLA TYPHIMURIUM, Strain/Indicator: TA100, Metabolic Activation: RAT, INTACT HEPATOCYTES, AROCLOR 1254, Method: PREINCUBATION); “active; positive” (Test System: AMES SALMONELLA TYPHIMURIUM, Strain/Indicator: TA100, Metabolic Activation: RAT, LIVER, S-9, 3-METHYLCHOLANTHRENE, Method: STANDARD PLATE); “active; positive” under setting [3]. Also, the mutagenic call is “inactive; negative” (Test System: AMES SALMONELLA TYPHIMURIUM, Strain/Indicator: TA100, Metabolic Activation: RAT, LIVER, S-9, PHENOBARBITAL, Method: STANDARD PLATE); “active; positive” (Test System: AMES SALMONELLA TYPHIMURIUM, Strain/Indicator: TA100, Metabolic Activation: RAT, NADPH-FORTIFIED HOMOGENIZED HEPATOCYTES, AROCLOR 1254, Method: PREINCUBATION); “active; positive” (Test System: AMES SALMONELLA TYPHIMURIUM, Strain/Indicator: TA100, Metabolic Activation: RAT, SONICATED HEPATOCYTES, AROCLOR 1254, Method: PREINCUBATION); “active; positive” (Test System: AMES SALMONELLA TYPHIMURIUM, Strain/Indicator: TA100, Method: STANDARD PLATE); “active; positive” (Test System: AMES SALMONELLA TYPHIMURIUM, Strain/Indicator: TA1537, Metabolic Activation: MOUSE, LIVER, S-9, Method: STANDARD PLATE); “inactive; negative” (Test System: AMES SALMONELLA TYPHIMURIUM, Strain/Indicator: TA1538, Metabolic Activation: NONE, Method: STANDARD PLATE). Further, the mutagenic call is “inactive; negative” (Test System: AMES SALMONELLA TYPHIMURIUM, Strain/Indicator: TA1538, Metabolic Activation: RAT, LIVER, S-9, AROCLOR 1254, Method: STANDARD PLATE); “active; positive” (Test System: AMES SALMONELLA TYPHIMURIUM, Strain/Indicator: TA1538, Metabolic Activation: RAT, LIVER, S-9, PHENOBARBITAL, Method: STANDARD PLATE); “active; positive” (Test System: CHINESE HAMSTER V-79, Strain/Indicator: V-79/6-THIOGUANINE, Metabolic Activation: RAT, LIVER, S-9, PHENOBARBITAL, Method: STANDARD PLATE); “active; positive” (Test System: CHINESE HAMSTER V-79, Strain/Indicator: V-79/OUABAIN, Metabolic Activation: CELL-MEDIATED, Method: STANDARD PLATE); “inactive; negative” (Test System: E. COLI, Strain/Indicator: WP2 UVRA, Metabolic Activation: HAMSTER, LIVER, S-9, AROCLOR 1254, Method: STANDARD PLATE); “inactive; negative” (Test System: E. COLI, Strain/Indicator: WP2 UVRA, Metabolic Activation: HAMSTER, LIVER, S-9, Method: STANDARD PLATE). In addition, the mutagenic call was “inactive; negative” (Test System: E. COLI, Strain/Indicator: WP2 UVRA, Metabolic Activation: MOUSE, LIVER, S-9, AROCLOR 1254, Method: STANDARD PLATE); “inactive; negative” (Test System: E. COLI, Strain/Indicator: WP2 UVRA, Metabolic Activation: MOUSE, LIVER, S-9, Method: STANDARD PLATE); “inactive; negative” (Test System: E. COLI, Strain/Indicator: WP2 UVRA, Metabolic Activation: NONE, Method: STANDARD PLATE); “inactive; negative” (Test System: E. COLI, Strain/Indicator: WP2 UVRA, Metabolic Activation: RAT, LIVER, S-9, AROCLOR 1254, Method: STANDARD PLATE); “inactive; negative” (Test System: E. COLI, Strain/Indicator: WP2 UVRA, Metabolic Activation: RAT, LIVER, S-9, Method: STANDARD PLATE); “active; positive” (Test System: MOUSE LYMPHOMA, Strain/Indicator: L5178Y (TK+/TK-), Metabolic Activation: NONE, Method: SUSPENSION/PLATE). Further, the mutagenic call was “active; positive” (Test System: MOUSE LYMPHOMA, Strain/Indicator: L5178Y (TK+/TK-), Metabolic Activation: RAT, LIVER, S-9, AROCLOR 1254, Method: SUSPENSION/PLATE) and “active; positive” (Test System: MOUSE LYMPHOMA, Strain/Indicator: L5178Y (TK+/TK-), Metabolic Activation: RAT, LIVER, S-9, Method: SUSPENSION/PLATE).

Consider `NCCNc1cccc2ccccc12`, for which the mutagenic call (Test System: CHINESE HAMSTER OVARY, Strain/Indicator: CHO-K1-BH4 (HGPRT)/6-THIOGUANINE, Metabolic Activation: NONE) was “inactive; negative” and the mutagenic call (Test System: CHINESE HAMSTER OVARY, Strain/Indicator: CHO-K1-BH4 (HGPRT)/6-THIOGUANINE, Metabolic Activation: S-9) is “inactive; negative”.

`Cc1ccc(N=Nc2c(O)c(C(=O)O)cc3ccccc23)c(S(=O)(=O)O)c1`: the mutagenic call is “inactive; negative” under setting [1]; “inactive; negative” (Test System: AMES SALMONELLA TYPHIMURIUM, Strain/Indicator: TA98, Metabolic Activation: RAT LIVER S-9, AROCLOR 1254, Method: STANDARD PLATE); “inactive; negative” under setting [2]; “inactive; negative” (Test System: AMES SALMONELLA TYPHIMURIUM, Strain/Indicator: TA100, Metabolic Activation: RAT LIVER S-9, AROCLOR 1254, Method: STANDARD PLATE).

On to `O=C(c1ccccc1)C1OC1c1ccc(Oc2ccccc2)cc1` (stereo not given), for which the mutagenic call is, setting by setting: under setting [1], “inactive; negative”; under setting [4], “inactive; negative”; under setting [2], “inactive; negative”; under setting [3], “inactive; negative”.

Regarding `CCCCC[N+](=O)[O-]`, the mutagenic call runs as follows: (Test System: AMES SALMONELLA TYPHIMURIUM, Strain/Indicator: TA98, Metabolic Activation: NONE, Method: PREINCUBATION) “inactive; negative”; (Test System: AMES SALMONELLA TYPHIMURIUM, Strain/Indicator: TA98, Metabolic Activation: RAT, LIVER, S-9, AROCLOR, Method: PREINCUBATION) “inactive; negative”; (Test System: AMES SALMONELLA TYPHIMURIUM, Strain/Indicator: TA100, Metabolic Activation: NONE, Method: PREINCUBATION) “inactive; negative”; (Test System: AMES SALMONELLA TYPHIMURIUM, Strain/Indicator: TA100, Metabolic Activation: RAT, LIVER, S-9, AROCLOR, Method: PREINCUBATION) “inactive; negative”; (Test System: AMES SALMONELLA TYPHIMURIUM, Strain/Indicator: TA102, Metabolic Activation: NONE, Method: PREINCUBATION) “inactive; negative”; (Test System: AMES SALMONELLA TYPHIMURIUM, Strain/Indicator: TA102, Metabolic Activation: RAT, LIVER, S-9, AROCLOR, Method: PREINCUBATION) “inactive; negative”. Besides, the mutagenic call (Test System: UDS RAT HEPATOCYTES, Strain/Indicator: THY INCORP, Metabolic Activation: NONE) was “inactive; negative”.

`CC(=O)CCN(C)N=O`: the mutagenic call (Test System: CHINESE HAMSTER V-79, Strain/Indicator: V-79/OUABAIN, Metabolic Activation: HAMSTER, HEPATOCYTES, Method: CELL-MEDIATED) is “active; positive”.

In the case of `CC1=C[C@H]2O[C@@H]3[C@H](O)C[C@](C)([C@@]2(CO)[C@H](O)C1=O)[C@]31CO1`, the mutagenic call is “active; positive (structural changes)” (End Point: IN VITRO CHROMOSOMAL ABERRATIONS, Test System: CHINESE HAMSTER V79 CELLS, Metabolic Activation: NONE); “inactive; negative” under setting [1]; “inactive; negative” (Test System: AMES SALMONELLA TYPHIMURIUM, Strain/Indicator: TA98, Metabolic Activation: RAT LIVER S-9, DELOR 103, Method: STANDARD PLATE); “inactive; negative” under setting [4]; “inactive; negative” under setting [2]; “inactive; negative” (Test System: AMES SALMONELLA TYPHIMURIUM, Strain/Indicator: TA100, Metabolic Activation: RAT LIVER S-9, DELOR 103, Method: STANDARD PLATE). In addition, the mutagenic call under setting [3] was “inactive; negative”.

Regarding `C=COc1ccccc1`, the mutagenic call under setting [1] is “inactive; negative”; the mutagenic call (Test System: AMES SALMONELLA TYPHIMURIUM, Strain/Indicator: TA98, Metabolic Activation: RAT LIVER MICROSOMES, Method: STANDARD PLATE) is “inactive; negative”; the mutagenic call (Test System: AMES SALMONELLA TYPHIMURIUM, Strain/Indicator: TA1535, Metabolic Activation: NONE, Method: STANDARD PLATE) was “inactive; negative”; the mutagenic call (Test System: AMES SALMONELLA TYPHIMURIUM, Strain/Indicator: TA1535, Metabolic Activation: RAT LIVER MICROSOMES, Method: STANDARD PLATE) is “active; positive”.

The values above are taken from PubChem BioAssay AID1259407 (Chemical Carcinogenesis Research Information System (CCRIS), 2018).
